In ChEMBL document CHEMBL5465560, “Selectivity Literature for EUbOPEN Chemogenomic Library” (2024):
Numbering of substitutions follows the chain as printed.

How the values were obtained:
[1] = tested on: T1, Receptor-type tyrosine-protein kinase FLT3 (Homo sapiens), P36888 [D835H]; assay: (§1) Selectivity interaction (KinomeScan (DiscoverX)) EUB0000045b FLT3
T1 sequence (whole entry): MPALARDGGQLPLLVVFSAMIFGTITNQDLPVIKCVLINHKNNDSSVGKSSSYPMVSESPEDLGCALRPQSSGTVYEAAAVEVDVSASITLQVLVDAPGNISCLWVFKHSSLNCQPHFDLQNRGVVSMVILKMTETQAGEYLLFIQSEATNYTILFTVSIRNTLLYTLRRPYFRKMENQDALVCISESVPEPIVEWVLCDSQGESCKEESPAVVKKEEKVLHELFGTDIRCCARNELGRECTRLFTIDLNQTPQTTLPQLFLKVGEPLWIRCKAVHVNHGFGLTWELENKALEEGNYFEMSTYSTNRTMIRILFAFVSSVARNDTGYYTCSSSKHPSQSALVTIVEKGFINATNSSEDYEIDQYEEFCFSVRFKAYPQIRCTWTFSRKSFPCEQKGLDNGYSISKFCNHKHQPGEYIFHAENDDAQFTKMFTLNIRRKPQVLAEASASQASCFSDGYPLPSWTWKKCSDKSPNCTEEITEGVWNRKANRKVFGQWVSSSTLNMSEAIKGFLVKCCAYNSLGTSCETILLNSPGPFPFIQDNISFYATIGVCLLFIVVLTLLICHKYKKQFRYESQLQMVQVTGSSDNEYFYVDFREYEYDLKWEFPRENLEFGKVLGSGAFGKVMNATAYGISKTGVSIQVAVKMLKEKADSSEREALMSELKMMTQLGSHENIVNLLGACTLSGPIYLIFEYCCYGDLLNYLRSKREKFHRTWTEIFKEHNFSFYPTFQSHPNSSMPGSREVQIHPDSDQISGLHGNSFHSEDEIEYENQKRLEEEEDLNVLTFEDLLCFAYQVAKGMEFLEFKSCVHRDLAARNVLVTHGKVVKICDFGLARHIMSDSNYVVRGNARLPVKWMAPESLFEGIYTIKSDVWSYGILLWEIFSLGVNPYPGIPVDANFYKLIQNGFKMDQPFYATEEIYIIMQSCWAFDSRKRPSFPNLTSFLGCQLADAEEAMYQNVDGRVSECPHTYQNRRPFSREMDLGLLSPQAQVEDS

[2] = tested on: T2, Receptor-type tyrosine-protein kinase FLT3 (Homo sapiens), P36888 [K663Q]; assay: as §1
T2 sequence (whole entry): T1 sequence (whole entry) with K663Q, H835D

[3] = tested on: T3, Receptor-type tyrosine-protein kinase FLT3 (Homo sapiens), P36888 [N841I]; assay: as §1
T3 sequence (whole entry): T1 sequence (whole entry) with H835D, N841I

C=CC(=O)Nc1cc(-n2c(=O)ccc3cnc4ccc(-c5ccc(NS(C)(=O)=O)cc5)cc4c32)ccc1C
% of control ([1]; at 1 µM): 89%
% of control ([1]; at 10 µM): 100%
% of control ([2]; at 1 µM): 100%
% of control ([2]; at 10 µM): 100%
% of control ([3]; at 1 µM): 85%
% of control ([3]; at 10 µM): 86%
